{
  "source": "patent US20150148551A1",
  "about": "“GENISTEIN FOR REDUCING LEVELS OF STORAGE COMPOUNDS IN THE TREATMENT AND/OR PREVENTION OF LYSOSOMAL STORAGE DISEASES (LSDS)” (3G THERAPEUTICS, INC., priority 2012, published 2015)",
  "key": {"[1]": {"tested_on": "GAA", "assay": "DNA microarray, GAA expression in fibroblasts exposed to genistein", "assay_type": "cell-based, human", "details": "for GAA fold change Average: 48 h vs DMSO", "protocol": "(§1) The experiments were conducted to characterise the transcriptomic profile of human fibroblast cells exposed to genistein, and in particular to determine the expression of genes encoding lysosomal enzymes involved in metabolism (i.e. synthesis and degradation) of organic substances. The absence or deficiency of these enzymes' activity is responsible for occurrence of various lysosomal storage diseases (LSD) (including MPS). The tested hypothesis assumed that genistein influences the expression of many genes, among which there are genes coding for enzymes required in metabolism of compounds, which are pathologically stored in LSD. The results provide important information regarding genistein action on the molecular level within the range of gene expression modulation by this substance. The experiment was conducted in biological quintuplicates. Human dermal fibroblasts (HDFa) were exposed in vitro for 1, 24 or 48 hours to: 30, 60 or 100 μM of genistein; 0.05% DMSO (K1); or were untreated (control cells) (K2), and total RNA was isolated and analysed.\n(§2) Fibroblast cells were grown in Dulbecco (DMEM) medium supplemented with 10% fetal bovine serum (FBS) with the addition of 1% antibiotics and anti-fungal agents at 37° C. in humidified atmosphere of 5% CO2, until the required confluency was obtained.\n(§3) To determine the effect of tested compound on the transcriptom of the fibroblast cells, the growth medium was replaced with fresh medium, either non-supplemented (0.05% DMSO), or containing genistein (30, 60 or 100 μM, in 0.05% DMSO). The exposure was done for 1, 24 or 48 hours.\n(§4) Total RNA was isolated from fibroblasts using High Pure RNA Isolation Kit according to the protocol and then it was quantitatively evaluated using Quant-It™ RiboGreen® Assay Kit.\n(§5) Biotinylated cRNA was prepared using Ambion Total PrepAmp Kit for Illumina arrays.\n(§6) Standard hybridization and quantitative image analysis procedures—Illumina hybridization protocol and Illumina scanning protocol, were used.\n(§7) Processing of the results was done during data definition, including: background correction (using background subtraction method), normalization (using quantile normalization algorithm with Illumina GenomeStudio software package: gene expression module version 1.9.0) and summarization (using method, which sums the values of signal intensities from a set of probes)."}, "[2]": {"tested_on": "CTSO", "assay": "DNA microarray, CTSO expression in fibroblasts exposed to genistein", "assay_type": "cell-based, human", "details": "for CTSO fold change Average: 48 h vs DMSO", "protocol": "as §1, §2, §3, §4, §5, §6, §7"}, "[3]": {"tested_on": "ASAH1", "assay": "DNA microarray, ASAH1 expression in fibroblasts exposed to genistein", "assay_type": "cell-based, human", "details": "for ASAH1 fold change Average: 48 h vs DMSO", "protocol": "as §1, §2, §3, §4, §5, §6, §7"}, "[4]": {"tested_on": "MPS II and III", "details": "animal tests and pilot clinical trials; cited from earlier work"}, "[5]": {"tested_on": "MAN2B1", "assay": "DNA microarray, MAN2B1 expression in fibroblasts exposed to genistein", "assay_type": "cell-based, human", "details": "for MAN2B1 fold change Average: 48 h vs DMSO", "protocol": "as §1, §2, §3, §4, §5, §6, §7"}, "[6]": {"tested_on": "HS3ST3A1", "assay": "DNA microarray, HS3ST3A1 expression in fibroblasts exposed to genistein", "assay_type": "cell-based, human", "protocol": "as §1, §2, §3, §4, §5, §6, §7"}, "[7]": {"tested_on": "ARSA", "assay": "DNA microarray, ARSA expression in fibroblasts exposed to genistein", "assay_type": "cell-based, human", "details": "for ARSA fold change Average: 48 h vs DMSO", "protocol": "as §1, §2, §3, §4, §5, §6, §7"}, "[8]": {"tested_on": "TPP1", "assay": "DNA microarray, TPP1 expression in fibroblasts exposed to genistein", "assay_type": "cell-based, human", "details": "for TPP1 fold change Average: 48 h vs DMSO", "protocol": "as §1, §2, §3, §4, §5, §6, §7"}},
  "data": [
    {"molecule": "O=c1c(-c2ccc(O)cc2)coc2cc(O)cc(O)c12", "note": "[genistein, 4′,5,7-trihydroxy-3-phenylchromen-4-one]", "values": [
      {"measurement": "GAA fold change Average 1h30/1hK1", "setting": "[1]; 30 μM, 1 h vs 0.05% DMSO", "value": 0.9686, "unit": "fold change"},
      {"measurement": "GAA fold change Average 1h60/1hK1", "setting": "[1]; 60 μM, 1 h vs 0.05% DMSO", "value": 1.087, "unit": "fold change"},
      {"measurement": "GAA fold change Average", "setting": "[1]; 60 μM", "value": 1.763, "unit": "fold change"},
      {"measurement": "GAA fold change Average 1h100/1hK1", "setting": "[1]; 100 μM, 1 h vs 0.05% DMSO", "value": 0.935, "unit": "fold change"},
      {"measurement": "GAA fold change Average", "setting": "[1]; 100 μM", "value": 1.955, "unit": "fold change"},
      {"measurement": "CTSO fold change Average 1h30/1hK1", "setting": "[2]; 30 μM, 1 h vs 0.05% DMSO", "value": 0.9973, "unit": "fold change"},
      {"measurement": "CTSO fold change Average", "setting": "[2]; 30 μM", "value": 1.2507, "unit": "fold change"},
      {"measurement": "CTSO fold change Average 1h60/1hK1", "setting": "[2]; 60 μM, 1 h vs 0.05% DMSO", "value": 1, "unit": "fold change"},
      {"measurement": "CTSO fold change Average", "setting": "[2]; 60 μM", "value": 1.276, "unit": "fold change"},
      {"measurement": "CTSO fold change Average 1h100/1hK1", "setting": "[2]; 100 μM, 1 h vs 0.05% DMSO", "value": 1.07, "unit": "fold change"},
      {"measurement": "CTSO fold change Average", "setting": "[2]; 100 μM", "value": 1.471, "unit": "fold change"},
      {"measurement": "ASAH1 fold change Average 1h30/1hK1", "setting": "[3]; 30 μM, 1 h vs 0.05% DMSO", "value": 1.1419, "unit": "fold change"},
      {"measurement": "ASAH1 fold change Average", "setting": "[3]; 30 μM", "value": 1.0802, "unit": "fold change"},
      {"measurement": "ASAH1 fold change Average 1h60/1hK1", "setting": "[3]; 60 μM, 1 h vs 0.05% DMSO", "value": 1.029, "unit": "fold change"},
      {"measurement": "ASAH1 fold change Average", "setting": "[3]; 60 μM", "value": 1.412, "unit": "fold change"},
      {"measurement": "ASAH1 fold change Average 1h100/1hK1", "setting": "[3]; 100 μM, 1 h vs 0.05% DMSO", "value": 1.252, "unit": "fold change"},
      {"measurement": "ASAH1 fold change Average", "setting": "[3]; 100 μM", "value": 1.52, "unit": "fold change"},
      {"measurement": "effectiveness in the treatment of MPS II and III", "setting": "[4]", "value": "promising effectiveness"},
      {"measurement": "MAN2B1 fold change Average 1h30/1hK1", "setting": "[5]; 30 μM, 1 h vs 0.05% DMSO", "value": 1.0342, "unit": "fold change"},
      {"measurement": "MAN2B1 fold change Average", "setting": "[5]; 30 μM", "value": 1.036, "unit": "fold change"},
      {"measurement": "MAN2B1 fold change Average 1h60/1hK1", "setting": "[5]; 60 μM, 1 h vs 0.05% DMSO", "value": 0.8507, "unit": "fold change"},
      {"measurement": "MAN2B1 fold change Average", "setting": "[5]; 60 μM", "value": 1.586, "unit": "fold change"},
      {"measurement": "MAN2B1 fold change Average 1h100/1hK1", "setting": "[5]; 100 μM, 1 h vs 0.05% DMSO", "value": 0.9864, "unit": "fold change"},
      {"measurement": "MAN2B1 fold change Average", "setting": "[5]; 100 μM", "value": 1.924, "unit": "fold change"},
      {"measurement": "HS3ST3A1 fold change Average 1h30/1hK1", "setting": "[6]; 30 μM, 1 h vs 0.05% DMSO", "value": 1.027, "unit": "fold change"},
      {"measurement": "HS3ST3A1 fold change Average 24h30/24hK1", "setting": "[6]; 30 μM, 24 h vs 0.05% DMSO", "value": 0.835, "unit": "fold change"},
      {"measurement": "HS3ST3A1 fold change Average 48h30/48hK1", "setting": "[6]; 30 μM, 48 h vs 0.05% DMSO", "value": 0.7933, "unit": "fold change"},
      {"measurement": "HS3ST3A1 fold change Average 1h60/1hK1", "setting": "[6]; 60 μM, 1 h vs 0.05% DMSO", "value": 0.9002, "unit": "fold change"},
      {"measurement": "HS3ST3A1 fold change Average 24h60/24hK1", "setting": "[6]; 60 μM, 24 h vs 0.05% DMSO", "value": 0.5744, "unit": "fold change"},
      {"measurement": "HS3ST3A1 fold change Average 48h61/48hK1", "setting": "[6]; 60 μM, 48 h vs 0.05% DMSO", "value": 0.6043, "unit": "fold change"},
      {"measurement": "HS3ST3A1 fold change Average 1h100/1hK1", "setting": "[6]; 100 μM, 1 h vs 0.05% DMSO", "value": 1.047, "unit": "fold change"},
      {"measurement": "HS3ST3A1 fold change Average 24h100/24hK1", "setting": "[6]; 100 μM, 24 h vs 0.05% DMSO", "value": 0.5452, "unit": "fold change"},
      {"measurement": "HS3ST3A1 fold change Average 48h100/48hK1", "setting": "[6]; 100 μM, 48 h vs 0.05% DMSO", "value": 0.569, "unit": "fold change"},
      {"measurement": "ARSA fold change Average 1h30/1hK1", "setting": "[7]; 30 μM, 1 h vs 0.05% DMSO", "value": 0.9099, "unit": "fold change"},
      {"measurement": "ARSA fold change Average 1h60/1hK1", "setting": "[7]; 60 μM, 1 h vs 0.05% DMSO", "value": 0.9092, "unit": "fold change"},
      {"measurement": "ARSA fold change Average", "setting": "[7]; 60 μM", "value": 1.218, "unit": "fold change"},
      {"measurement": "ARSA fold change Average 1h100/1hK1", "setting": "[7]; 100 μM, 1 h vs 0.05% DMSO", "value": 0.963, "unit": "fold change"},
      {"measurement": "ARSA fold change Average", "setting": "[7]; 100 μM", "value": 1.526, "unit": "fold change"},
      {"measurement": "TPP1 fold change Average 1h30/1hK1", "setting": "[8]; 30 μM, 1 h vs 0.05% DMSO", "value": 1.0655, "unit": "fold change"},
      {"measurement": "TPP1 fold change Average", "setting": "[8]; 30 μM", "value": 1.2672, "unit": "fold change"},
      {"measurement": "TPP1 fold change Average 1h60/1hK1", "setting": "[8]; 60 μM, 1 h vs 0.05% DMSO", "value": 1.001, "unit": "fold change"},
      {"measurement": "TPP1 fold change Average", "setting": "[8]; 60 μM", "value": 1.505, "unit": "fold change"},
      {"measurement": "TPP1 fold change Average 1h100/1hK1", "setting": "[8]; 100 μM, 1 h vs 0.05% DMSO", "value": 1.031, "unit": "fold change"},
      {"measurement": "TPP1 fold change Average", "setting": "[8]; 100 μM", "value": 1.603, "unit": "fold change"}
    ]}
  ]
}
